Laboratory results taken from US11136352B2, “Immunotherapy against several tumors including neuronal and brain tumors” (IMMATICS BIOTECHNOLOGIES GMBH, priority 2008, dated 2021).

Legend:
[1] = tested on: CD8+ T cells from HLA-A*02+ buffy coats of healthy donors; experiment: In vitro priming of CD8+ T cells with pMHC/anti-CD28 coated beads (aAPC), tetramer readout; type: cell-based, human; conditions: healthy HLA-A*02+ donors; three in vitro stimulations; TUMAP-specific tetramer+ CD8+ T cells
Description: To perform in vitro stimulations by artificial antigen presenting cells (aAPC) loaded with peptide-MHC complex (pMHC) and anti-CD28 antibody, first we isolated PBMCs (peripheral blood mononuclear cells) from fresh HLA-A*02+ buffy coats by using standard density gradient separation medium (PAA, Cölbe, Germany). Buffy coats were either obtained from the Blood Bank Tubingen or from the Katharinenhospital Stuttgart. Isolated PBMCs were incubated overnight in T-cell medium (TCM) for human in vitro priming consisting of RPMI-Glutamax (Invitrogen, Karlsruhe, Germany) supplemented with 10% heat inactivated human AB serum (PAA, Cölbe, Germany), 100 U/ml Penicillin/100 μg/ml Streptomycin (Cambrex, Verviers, Belgium), 1 mM sodium pyruvate (CC Pro, Neustadt, Germany) and 20 μg/ml Gentamycin (Cambrex). CD8+ lymphocytes were isolated using the CD8+ MACS positive selection kit (Miltenyi, Bergisch Gladbach, Germany) according to the manufacturer's instructions. […] 800.000 beads/200 μl were coated in 96-well plates in the presence of 600 ng biotin anti-CD28 plus 200 ng relevant biotin-pMHC (high density beads) or 2 ng relevant plus 200 ng irrelevant (pMHC library) MHC (low density beads). Stimulations were initiated in 96-well plates by co-incubating 1×10^6 CD8+ T cells with 2×10^5 washed coated beads in 200 μl TCM supplemented with 5 ng/ml IL-12 (PromoCell) for 3-4 days at 37° C. Half of the medium was then exchanged by fresh TCM supplemented with 80 U/ml IL-2 and incubating was continued for 3-4 days at 37° C. This stimulation cycle was performed for a total of three times. […] Peptide specific cells were calculated as percentage of total CD8+ T cells. Evaluation of tetrameric analysis was done using the software FCS Express (De Novo Software). In vitro priming of specific tetramer+CD8+ lymphocytes was detected by appropriate gating and by comparing to negative control stimulations.

[2] = tested on: precursor T cells of glioblastoma patients; experiment: In vitro immunogenicity in a small number of glioblastoma patients; type: cell-based, human; conditions: compared with healthy donors
[3] = tested on: granzyme B-secreting CTLs; conditions: type 1 diabetic patients and antibody-positive relatives compared with healthy donors; cited from earlier work

NLDTLMTYV (listed as Homo sapiens) [NLGN4X-001, HLA-A*02 peptide from NLGN4X]
Positive donors/donors tested [1]: 100% | Positive wells/wells tested [1]: 62% | Immunogenicity in glioblastoma patients [2]: immunogenic to a similar extent compared with healthy donors

YLIAGIISL (listed as Homo sapiens) [SLCO1C1-001, HLA-A*02 peptide from SLCO1C1]
Positive donors/donors tested [1]: 60% | Positive wells/wells tested [1]: 7%

GLQSQIAQV (listed as Homo sapiens) [NES-001, HLA-A*02 peptide from NES]
Positive donors/donors tested [1]: 75% | Positive wells/wells tested [1]: 38%

LTFGDVVAV (listed as Homo sapiens) [FABP7-001, HLA-A*02 peptide from FABP7]
Positive donors/donors tested [1]: 100% | Positive wells/wells tested [1]: 27%

KIQEILTQV (listed as Homo sapiens) [IGF2BP3-001, HLA-A*02 peptide from IGF2BP3]
Positive donors/donors tested [1]: 50% | Positive wells/wells tested [1]: 21%

NLAQDLATV (listed as Homo sapiens) [GFAP-001, HLA-A*02 peptide from GFAP]
Reactivity of granzyme B-secreting CTLs [3]: enhanced reactivity

QLLAGVFLA (listed as Homo sapiens) [TNC-002, HLA-A*02 peptide from TNC]
Positive donors/donors tested [1]: 50% | Positive wells/wells tested [1]: 14%

TLVGIIVGV (listed as Homo sapiens) [PDPN-001, HLA-A*02 peptide from PDPN]
Positive donors/donors tested [1]: 60% | Positive wells/wells tested [1]: 11%

AMTQLLAGV (listed as Homo sapiens) [TNC-001, HLA-A*02 peptide from TNC]
Positive donors/donors tested [1]: 60% | Positive wells/wells tested [1]: 30%

SLNELRVLL (listed as Homo sapiens) [CLIP2-001, HLA-A*02 peptide from CLIP2]
Positive donors/donors tested [1]: 75% | Positive wells/wells tested [1]: 6%

FLGDPPEKL (listed as Homo sapiens) [BCA-001, HLA-A*02 peptide from BCAN]
Positive donors/donors tested [1]: 60% | Positive wells/wells tested [1]: 5%

CSCC[C@H](NC(=O)[C@@H](N)[C@@H](C)O)C(=O)N[C@@H](CC(C)C)C(=O)N[C@@H](C)C(=O)N[C@@H](CCCNC(=N)N)C(=O)N[C@@H](CC(C)C)C(=O)N[C@@H](C)C(=O)N[C@@H](CO)C(=O)N[C@@H](C)C(=O)O [CSP-001]
Positive donors/donors tested [1]: 100% | Positive wells/wells tested [1]: 57%

GLWHHQTEV (listed as Homo sapiens) [NRCAM-001, HLA-A*02 peptide from NRCAM]
Positive donors/donors tested [1]: 86% | Positive wells/wells tested [1]: 39%

ALWAWPSEL (listed as Homo sapiens) [BCA-002, HLA-A*02 peptide from BCAN]
Positive donors/donors tested [1]: 75% | Positive wells/wells tested [1]: 35% | Immunogenicity in glioblastoma patients [2]: immunogenic to a similar extent compared with healthy donors
